Data published in patent US20230293458A1, “MULTIBIOTIC AGENTS AND METHODS OF USING THE SAME” (Flagship Pioneering Innovations V, Inc., priority 2017, published 2023).

How the values were obtained:
[1] = Stability of multibiotic agents in Simulated Intestinal Fluid (SIF); type: in vitro ADME; conditions: simulated intestinal fluid pH 6.7 with pancreatin, 37° C., 1 μM
In short: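 Compounds at 1 μM final (from 1 mM DMSO stock) incubated at 37 °C with agitation in fresh SIF (FaSSIF plus pancreatin in pH 6.7 phosphate buffer). Aliquots taken at T0 and regular intervals, quenched with 1 volume acetonitrile. Degradation rate determined by LC/MS.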

[2] = Stability of multibiotic agents in Simulated Gastric Fluid (SGF); type: in vitro ADME; conditions: simulated gastric fluid pH 1.6 with pepsin, 37° C., 1 μM
In short: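 Compounds were incubated at 1 μM final at 37 °C in simulated gastric fluid containing NaCl, pH 1.6, with FaSSIF powder and 0.1 mg/mL pepsin. Aliquots were taken at T0 and at regular intervals and quenched with acetonitrile. Degradation rates were determined by LC/MS.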

| SMILES | Assay 3 (SIF) (% @ Remaining 4 hours) [1] | Assay 2 (SGF) (% Remaining @ 4 hours) [2] |
| --- | --- | --- |
| CCCC(=O)NCCCN(CCCCN(CCCNC(=O)CCC)C(=O)CCC)C(=O)CCC [Example 128, N-[3-[butanoyl-[4-[butanoyl-[3-(butanoylamino)propyl]amino]butyl]amino]propyl]butanamide] | C (>75% of the tested compound remaining) | C (>75% of the tested compound remaining) |
| CCCC(=O)NCCCN(CCCNC(=O)CCC)C(=O)CCC [Example 129, N-[3-[butanoyl-[3-(butanoylamino)propyl]amino]propyl]butanamide] | C (>75% of the tested compound remaining) | C (>75% of the tested compound remaining) |
| CCCC(=O)N1CCN(C(=O)CCC)CC1 [Example 130, 1-(4-butanoylpiperazin-1-yl)butan-1-one] | C (>75% of the tested compound remaining) | C (>75% of the tested compound remaining) |
| CCCC(=O)N(C)CCCN(C)C(=O)CCC [Example 131, N-[3-[butanoyl(methyl)amino]propyl]-N-methyl-butanamide] | C (>75% of the tested compound remaining) | C (>75% of the tested compound remaining) |
| CCCC(=O)N[C@H]1CC[C@H](NC(=O)CCC)CC1 [Example 132, trans-N-[4-(butanoylamino)cyclohexyl]butanamide] | C (>75% of the tested compound remaining) | C (>75% of the tested compound remaining) |
| CCCC(=O)NCCC[C@H](NC(=O)CCC)C(=O)O [Example 133, (2S)-2,5-bis(butanoylamino)pentanoic acid] | C (>75% of the tested compound remaining) | C (>75% of the tested compound remaining) |
| CCCC(=O)/N=C(/NCCCCNC(=O)CCC)NC(=O)CCC [Example 134, N-[4-[[(Z)—N,N′-di(butanoyl)carbamimidoyl]amino]butyl]butanamide] | C (>75% of the tested compound remaining) | C (>75% of the tested compound remaining) |
| C[C@@H](O)CC(=O)NCCCNC(=O)C[C@@H](C)O [Example 135, (3R)-3-hydroxy-N-[3-[[(3R)-3-hydroxybutanoyl]amino]propyl]butanamide] | C (>75% of the tested compound remaining) | C (>75% of the tested compound remaining) |
| C[C@@H](O)CC(=O)NCCCN(CCCCN(CCCNC(=O)C[C@@H](C)O)C(=O)C[C@@H](C)O)C(=O)C[C@@H](C)O [Example 136, (3R)-3-hydroxy-N-[3-[[(3R)-3-hydroxybutanoyl]-[4-[[(3R)-3-hydroxybutanoyl]-[3-[[(3R)-3-hydroxybutanoyl]amino]propyl]amino]butyl]amino]propyl]butanamide] | C (>75% of the tested compound remaining) | C (>75% of the tested compound remaining) |
| C[C@@H](O)CC(=O)NCCCNCCCCN(CCCNC(=O)C[C@@H](C)O)C(=O)C[C@@H](C)O [Example 137, (3R)-3-hydroxy-N-[3-[4-[[(3R)-3-hydroxybutanoyl]-[3-[[(3R)-3-hydroxybutanoyl]amino]propyl]amino]butylamino]propyl]butanamide] | C (>75% of the tested compound remaining) | C (>75% of the tested compound remaining) |
| CC(=O)OC1OC[C@H](OC(C)=O)[C@H](OC(C)=O)[C@H]1OC(C)=O (stereo partly drawn) [Example 138, [(3S,4S,5R)-4,5,6-triacetoxytetrahydropyran-3-yl] acetate] | C (>75% of the tested compound remaining) | C (>75% of the tested compound remaining) |
| CCCC(=O)OC1OC[C@H](OC(=O)CCC)[C@H](OC(=O)CCC)[C@H]1OC(=O)CCC (stereo partly drawn) [Example 139, [(3S,4S,5R)-4,5,6-tri(butanoyloxy)tetrahydropyran-3-yl] butanoate] | C (>75% of the tested compound remaining) | C (>75% of the tested compound remaining) |
| CCCC(=O)O[C@H]1[C@@H](OC(=O)CCC)COC(O)[C@@H]1OC(=O)CCC (stereo partly drawn) [Example 140, [(3S,4S,5R)-4,5-di(butanoyloxy)-6-hydroxy-tetrahydropyran-3-yl] butanoate] | C (>75% of the tested compound remaining) | C (>75% of the tested compound remaining) |
| CCCC(=O)O[C@H]1[C@@H](OC(=O)CCC)COC(Oc2ccccc2C(=O)O)[C@@H]1OC(=O)CCC (stereo partly drawn) [Example 141, 2-[(3R,4S,5S)-3,4,5-tri(butanoyloxy)tetrahydropyran-2-yl]oxybenzoic acid] | A (<25% of the tested compound remaining) | C (>75% of the tested compound remaining) |
| Cc1ncc(CO)c(COC(=O)/C=C/c2c[nH]c3ccccc23)c1OC(=O)/C=C/c1c[nH]c2ccccc12 [Example 142, [5-(hydroxymethyl)-3-[(E)-3-(1H-indol-3-yl)prop-2-enoyl]oxy-2-methyl-4-pyridyl]methyl (E)-3-(1H-indol-3-yl)prop-2-enoate] | C (>75% of the tested compound remaining) | C (>75% of the tested compound remaining) |
| C[C@@H](O)CC(=O)NCCCNCCCNC(=O)C[C@@H](C)O [Example 143, (3R)-3-hydroxy-N-[3-[3-[[(3R)-3-hydroxybutanoyl]amino]propylamino]propyl] butanamide] | C (>75% of the tested compound remaining) | C (>75% of the tested compound remaining) |
| CCCC(=O)O[C@@H]1[C@H](OC(=O)CCC)COC(O)[C@@H]1OC(=O)CCC (stereo partly drawn) [Example 144, [(3R,4R,5R)-4,5-di(butanoyloxy)-6-hydroxy-tetrahydropyran-3-yl] butanoate] | A (<25% of the tested compound remaining) | C (>75% of the tested compound remaining) |
| O=C(Cc1c[nH]c2ccccc12)O[C@H]1OC[C@@H](OC(=O)Cc2c[nH]c3ccccc23)[C@@H](OC(=O)Cc2c[nH]c3ccccc23)[C@H]1OC(=O)Cc1c[nH]c2ccccc12 [Example 145, [(3R,4R,5R,6R)-4,5,6-tris[[2-(1H-indol-3-yl)acetyl]oxy]tetrahydropyran-3-yl] 2-(1H-indol-3-yl)acetate] | A (<25% of the tested compound remaining) | C (>75% of the tested compound remaining) |
| O=C(Cc1c[nH]c2ccccc12)O[C@@H]1OC[C@@H](OC(=O)Cc2c[nH]c3ccccc23)[C@@H](OC(=O)Cc2c[nH]c3ccccc23)[C@H]1OC(=O)Cc1c[nH]c2ccccc12 [Example 146, [(3R,4R,5R,6S)-4,5,6-tris[[2-(1H-indol-3-yl)acetyl]oxy]tetrahydropyran-3-yl] 2-(1H-indol-3-yl)acetate] | A (<25% of the tested compound remaining) | C (>75% of the tested compound remaining) |
| O=C(Cc1c[nH]c2ccccc12)O[C@H]1[C@@H](OC(=O)Cc2c[nH]c3ccccc23)COC(O)[C@@H]1OC(=O)Cc1c[nH]c2ccccc12 (stereo partly drawn) [Example 147, [(3S,4S,5R)-6-hydroxy-4,5-bis[[2-(1H-indol-3-yl)acetyl]oxy]tetrahydropyran-3-yl] 2-(1H-indol-3-yl)acetate] | B (25-75% of the tested compound remaining) | C (>75% of the tested compound remaining) |
| O=C(CCc1c[nH]c2ccccc12)O[C@H]1[C@@H](OC(=O)CCc2c[nH]c3ccccc23)COC(O)[C@@H]1OC(=O)CCc1c[nH]c2ccccc12 (stereo partly drawn) [Example 148, [(3S,4S,5R)-6-hydroxy-4,5-bis[3-(1H-indol-3-yl)propanoyloxy]tetrahydropyran-3-yl] 3-(1H-indol-3-yl)propanoate] | A (<25% of the tested compound remaining) | C (>75% of the tested compound remaining) |
| CCC(=O)OC1OC[C@H](OC(=O)CC)[C@H](OC(=O)CC)[C@H]1OC(=O)CC (stereo partly drawn) [Example 149, [(3S,4S,5R)-4,5,6-tri(propanoyloxy)tetrahydropyran-3-yl] propanoate] | C (>75% of the tested compound remaining) | C (>75% of the tested compound remaining) |
| CCCC(=O)OC1O[C@@H](C)[C@H](OC(=O)CCC)[C@@H](OC(=O)CCC)[C@H]1OC(=O)CCC (stereo partly drawn) [Example 152, [(2S,3S,4R,5R)-4,5,6-tri(butanoyloxy)-2-methyl-tetrahydropyran-3-yl] butanoate] | C (>75% of the tested compound remaining) | C (>75% of the tested compound remaining) |
| C[C@@H]1OC(O)[C@H](OC(=O)Cc2c[nH]c3ccccc23)[C@H](OC(=O)Cc2c[nH]c3ccccc23)[C@H]1OC(=O)Cc1c[nH]c2ccccc12 (stereo partly drawn) [Example 155, [(2S,3S,4R,5R)-6-hydroxy-4,5-bis[[2-(1H-indol-3-yl)acetyl]oxy]-2-methyl-tetrahydropyran-3-yl] 2-(1H-indol-3-yl)acetate] | C (>75% of the tested compound remaining) | C (>75% of the tested compound remaining) |
| CCCC(=O)O[C@@H]1[C@H](OC(=O)CCC)[C@H](C)OC(O)[C@H]1OC(=O)CCC (stereo partly drawn) [Example 156, [(2S,3R,4R,5S)-4,5-di(butanoyloxy)-6-hydroxy-2-methyl-tetrahydropyran-3-yl] butanoate] | A (<25% of the tested compound remaining) | C (>75% of the tested compound remaining) |
